Where two headings read alike, the source gives them in different places.
Legend:
[1] = molecular target: urease enzyme (Canavalia ensiformis, UniProt P07374); test: Mechanistic studies (Lineweaver-Burk, secondary replot, Dixon plot); assay type: biochemical; settings: Lineweaver-Burk and Dixon plots; substrate 0.5-4.0 mM; Ropinirole 5, 10, 20 μM
Protocol: Mechanistic studies were carried out to determine the mechanism of inhibition of 4-[2-(dipropylamino)ethyl]-1,3-dihydro-2H-indol-2-one ( Ropinirole) of the enzyme urease. In brief, urease enzyme solution (1 U/200 μL) was incubated with different concentrations of Ropinirole for 15 min at 30° C. The reaction was then initiated by adding different concentrations of substrate (0.5-4.0 mM), then phenol and alkali reagent were added and change in absorbance was measured for 50 minutes at 630 nm on microtitre plate reader (SpectraMax M5, Molecular Devices, Calif., USA). The Lineweaver-Burk plot was used to determine the type of inhibition, while secondary replot of Lineweaver-Burk plot and Dixon plots were used for the determination and confirmation of dissociation constants (Ki).
The EZ-Fit enzyme kinetics program (Perrella Scientific Inc., Amherst, USA) was employed to calculate the IC50 values. All graphs were plotted by using Grafit 7 (Erithacus Software Limited, UK). Values of the correlation coefficients, intercepts, slopes, and their standard errors were calculated by the linear regression analysis by using the same program. Each point in the constructed graphs represents the mean of the three experiments.

[2] = molecular target: Jack bean (Canavalia ensiformis) urease (Canavalia ensiformis, UniProt P07374); test: biochemical
Chain of Jack bean (Canavalia ensiformis) urease (P07374 whole entry, looked up): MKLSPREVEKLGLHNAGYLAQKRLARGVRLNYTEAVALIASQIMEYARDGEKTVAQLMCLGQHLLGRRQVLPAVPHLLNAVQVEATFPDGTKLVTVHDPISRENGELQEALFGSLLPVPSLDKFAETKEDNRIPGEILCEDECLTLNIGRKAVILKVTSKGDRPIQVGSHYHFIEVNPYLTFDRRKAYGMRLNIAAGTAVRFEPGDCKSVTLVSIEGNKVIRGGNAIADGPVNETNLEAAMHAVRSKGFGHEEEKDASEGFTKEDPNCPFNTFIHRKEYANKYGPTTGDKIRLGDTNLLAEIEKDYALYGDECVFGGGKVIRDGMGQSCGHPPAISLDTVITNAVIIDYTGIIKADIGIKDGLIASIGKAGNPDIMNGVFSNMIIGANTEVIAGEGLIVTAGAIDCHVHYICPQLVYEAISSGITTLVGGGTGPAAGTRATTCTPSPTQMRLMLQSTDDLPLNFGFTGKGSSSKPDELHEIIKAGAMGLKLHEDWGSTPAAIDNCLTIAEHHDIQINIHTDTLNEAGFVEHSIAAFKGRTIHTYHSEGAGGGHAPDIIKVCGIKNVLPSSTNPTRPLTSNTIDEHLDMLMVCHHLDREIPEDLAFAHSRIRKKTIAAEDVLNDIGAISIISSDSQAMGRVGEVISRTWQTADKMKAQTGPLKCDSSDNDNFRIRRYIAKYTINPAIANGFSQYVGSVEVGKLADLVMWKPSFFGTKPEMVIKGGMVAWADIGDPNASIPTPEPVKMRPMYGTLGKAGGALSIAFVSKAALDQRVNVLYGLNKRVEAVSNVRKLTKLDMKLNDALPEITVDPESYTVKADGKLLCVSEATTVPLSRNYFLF
Description: Each point in the constructed graphs represents the mean of the three experiments.

Chain of urease enzyme (P07374 whole entry, looked up): as above

SMILES	type of inhibition [1]	IC50 [2]	IC50 ([2]; Jack bean urease, 100 mM urea, pH 6.8, 30° C., 15 min, triplicate, read-out: IC50 (urease inhibition))
CCCN(CCC)CCc1cccc2c1CC(=O)N2 [Ropinirole, 4-[2-(Dipropylamino)ethyl]-1,3-dihydro-2H-indol-2-one]	mixed-type of inhibitor	11.7 ± 0.46 µM	–
CC(=O)NO [acetohydroxamic acid]	–	–	41.5 ± 1.5 µM

From patent US20170252323A1, “4-[2-(Dipropylamino)ethyl]-1,3-dihydro-2H-indol-2-one (Ropinirole) a New Inhibitor of Jack bean Urease Enzyme: An Example of Drug Repurposing” (priority 2016, published 2017)
